Experimental data: ChEMBL document CHEMBL3885861, “Open TG-GATES”

Species on record: Rattus norvegicus
Assay: Open TG-GATES - Regimen: Single
Format: toxicity, organism-based, Sprague-Dawley
Set-up: regimen Single, gender Male, age 6 weeks
Conditions: in vivo, po, 300 mg/kg, route gavage, dose level Middle; for APTT / Bas / Eos / Fbg / Hb / Ht / Lym / MCH / MCHC / MCV / Mono / Neu / PT / Plat / RBC / Ret / WBC: tissue Blood; for KIDNEY_L / KIDNEY_R / KIDNEY_TOTAL: tissue Kidney; for LIVER: tissue Liver; for ALP / ALT / AST / BUN / CRE / Ca / Cl / DBIL / GLC / IP / K / LDH / Na / PL / RALB / TBIL / TC / TG / TP / gamma-GTP: tissue Plasma

COC(=O)C1=C(C)NC(C)=C(C(=O)OC)C1c1ccccc1[N+](=O)[O-] [NIFEDIPINE]
APTT (3 h): 16.6 s | Bas (3 h): 0.2% | Eos (3 h): 0.6% | Fbg (3 h): 299.2 mg/dL | Hb (3 h): 12.8 g/dL | Ht (3 h): 39.1% | Lym (3 h): 75.2% | MCH (3 h): 21 pg | MCHC (3 h): 32.9% | MCV (3 h): 63.8 fL | Mono (3 h): 3.8% | Neu (3 h): 19.8% | PT (3 h): 15.1 s | Plat (3 h): 126.5 x10_4/uL | RBC (3 h): 613 x10_4/ul | Ret (3 h): 9.4% | WBC (3 h): 113.9 x10_2/uL | KIDNEY_L (3 h): 0.9 g | KIDNEY_R (3 h): 0.9 g | KIDNEY_TOTAL (3 h): 1.8 g | LIVER (3 h): 8.1 g | ALP (3 h): 1571 IU/L | ALT (3 h): 46.2 IU/L | AST (3 h): 74.8 IU/L | BUN (3 h): 27.6 mg/dL | CRE (3 h): 0.3 mg/dL | Ca (3 h): 11.6 mg/dL | Cl (3 h): 96.8 meq/L | DBIL (3 h): 0.01 mg/dL | GLC (3 h): 263.6 mg/dL | IP (3 h): 9.5 mg/dL | K (3 h): 4.7 meq/L | LDH (3 h): 85 IU/L | Na (3 h): 134.6 meq/L | PL (3 h): 135.4 mg/dL | RALB (3 h): 2.6 g/dL | TBIL (3 h): 0.034 mg/dL | TC (3 h): 84.2 mg/dL | TG (3 h): 33.6 mg/dL | TP (3 h): 5.3 g/dL | gamma-GTP (3 h): 1 IU/L | TERMINAL_BW (6 h): 205.3 g | APTT (6 h): 16.3 s | Bas (6 h): 0% | Eos (6 h): 0.6% | Fbg (6 h): 293.2 mg/dL | Hb (6 h): 13.1 g/dL | Ht (6 h): 40% | Lym (6 h): 75% | MCH (6 h): 20.7 pg | MCHC (6 h): 32.6% | MCV (6 h): 63.5 fL | Mono (6 h): 3.8% | Neu (6 h): 19.8% | PT (6 h): 14.9 s | Plat (6 h): 123.8 x10_4/uL | RBC (6 h): 632 x10_4/ul | Ret (6 h): 10% | WBC (6 h): 101.9 x10_2/uL | KIDNEY_L (6 h): 0.9 g | KIDNEY_R (6 h): 0.9 g | KIDNEY_TOTAL (6 h): 1.8 g | LIVER (6 h): 7.9 g | ALP (6 h): 1503.6 IU/L | ALT (6 h): 51.2 IU/L | AST (6 h): 78.8 IU/L | BUN (6 h): 32.2 mg/dL | CRE (6 h): 0.2 mg/dL | Ca (6 h): 11.3 mg/dL | Cl (6 h): 97.6 meq/L | DBIL (6 h): 0.006 mg/dL | GLC (6 h): 221.4 mg/dL | IP (6 h): 10.7 mg/dL | K (6 h): 5.1 meq/L | LDH (6 h): 78.8 IU/L | Na (6 h): 136.6 meq/L | PL (6 h): 150.4 mg/dL | RALB (6 h): 2.6 g/dL | TBIL (6 h): 0.042 mg/dL | TC (6 h): 90.6 mg/dL | TG (6 h): 19.4 mg/dL | TP (6 h): 5.5 g/dL | gamma-GTP (6 h): 1.2 IU/L | TERMINAL_BW (9 h): 206.1 g | APTT (9 h): 17.3 s | Bas (9 h): 0% | Eos (9 h): 0.6% | Fbg (9 h): 288 mg/dL | Hb (9 h): 13.1 g/dL | Ht (9 h): 39.7% | Lym (9 h): 78.2% | MCH (9 h): 21 pg | MCHC (9 h): 33% | MCV (9 h): 63.7 fL | Mono (9 h): 3.6% | Neu (9 h): 16.4% | PT (9 h): 14.6 s | Plat (9 h): 124.2 x10_4/uL | RBC (9 h): 623 x10_4/ul | Ret (9 h): 9.8% | WBC (9 h): 94.7 x10_2/uL | KIDNEY_L (9 h): 0.9 g | KIDNEY_R (9 h): 0.9 g | KIDNEY_TOTAL (9 h): 1.8 g | LIVER (9 h): 7.3 g | ALP (9 h): 1317.2 IU/L | ALT (9 h): 51.2 IU/L | AST (9 h): 76.6 IU/L | BUN (9 h): 26.8 mg/dL | CRE (9 h): 0.2 mg/dL | Ca (9 h): 10.9 mg/dL | Cl (9 h): 100.8 meq/L | DBIL (9 h): 0.01 mg/dL | GLC (9 h): 193.4 mg/dL | IP (9 h): 11.1 mg/dL | K (9 h): 5 meq/L | LDH (9 h): 72.4 IU/L | Na (9 h): 137.4 meq/L | PL (9 h): 156.4 mg/dL | RALB (9 h): 2.5 g/dL | TBIL (9 h): 0.046 mg/dL | TC (9 h): 91 mg/dL | TG (9 h): 28.2 mg/dL | TP (9 h): 5.4 g/dL | gamma-GTP (9 h): 1 IU/L | TERMINAL_BW (24 h): 198.5 g | APTT (24 h): 16.6 s | Bas (24 h): 0% | Eos (24 h): 1% | Fbg (24 h): 298.6 mg/dL | Hb (24 h): 13.1 g/dL | Ht (24 h): 40% | Lym (24 h): 67% | MCH (24 h): 20.4 pg | MCHC (24 h): 32.7% | MCV (24 h): 62.2 fL | Mono (24 h): 3.6% | Neu (24 h): 27% | PT (24 h): 14.1 s | Plat (24 h): 128.1 x10_4/uL | RBC (24 h): 643.8 x10_4/ul | Ret (24 h): 9% | WBC (24 h): 95.9 x10_2/uL | KIDNEY_L (24 h): 0.9 g | KIDNEY_R (24 h): 0.9 g | KIDNEY_TOTAL (24 h): 1.7 g | LIVER (24 h): 7.8 g | ALP (24 h): 1579.6 IU/L | ALT (24 h): 43.8 IU/L | AST (24 h): 68.4 IU/L | BUN (24 h): 12 mg/dL | CRE (24 h): 0.2 mg/dL | Ca (24 h): 10.6 mg/dL | Cl (24 h): 107.4 meq/L | DBIL (24 h): 0.012 mg/dL | GLC (24 h): 160.4 mg/dL | IP (24 h): 8.3 mg/dL | K (24 h): 3.9 meq/L | LDH (24 h): 73.8 IU/L | Na (24 h): 145 meq/L | PL (24 h): 133.6 mg/dL | RALB (24 h): 2.8 g/dL | TBIL (24 h): 0.042 mg/dL | TC (24 h): 77.8 mg/dL | TG (24 h): 41.2 mg/dL | TP (24 h): 5.8 g/dL | gamma-GTP (24 h): 0.8 IU/L
